According to ChEMBL document CHEMBL2203166, “Small Molecule Ligands For Active Targeting Of TrkC-expressing Tumor Cells” (ACS Med Chem Lett, 2012):
Calls of active or inactive are those of the source. The rule behind the calls is not given here.

Experiments:
[1] = Cytotoxicity against CHO cells; assay type: cell-based, Cricetulus griseus; conditions: chinese hamster, read-out: ED50 (the source's name)
NIH3T3 [2] = test: Cytotoxicity against mouse NIH/3T3 cells after 56 to 60 hrs by MTT assay; assay type: cell-based; conditions: for Activity: mouse, nih3t3; for IC50: Mus musculus, NIH3T3
NIH3T3 [3] = test: Cytotoxicity against mouse NIH/3T3 cells expressing TrkC receptor after 56 to 60 hrs by MTT assay; assay type: functional, cell-based
MCF7 = test: Cytotoxicity against human MCF7 cells; assay type: functional, cell-based
NIH3T3 [4] = test: Cytotoxicity against mouse NIH/3T3 cells expressing TrkC receptor after 56 to 60 hrs by MTT assay in presence of 3.5 nM of growth factor NT3; assay type: functional, cell-based
NIH3T3 [5] = test: Cytotoxicity against mouse NIH/3T3 cells after 56 to 60 hrs by MTT assay in presence of 3.5 nM of growth factor NT3; assay type: cell-based
NIH3T3 [6] = test: Cytotoxicity against mouse NIH/3T3 cells after 56 to 60 hrs by MTT assay in presence of 20 uM of IY-IY-TEG; assay type: cell-based
NIH3T3 [7] = test: Cytotoxicity against mouse NIH/3T3 cells expressing TrkC receptor after 56 to 60 hrs by MTT assay in presence of 20 uM of IY-IY-TEG; assay type: functional, cell-based
4T1 = test: Cytotoxicity against mouse 4T1 cells expressing TrkC receptor after 30 hrs by Calcein-AM assay; assay type: functional, cell-based; conditions: 4T1, 30 h
[8] = Mus musculus, NIH3T3, read-out: IC50

For `CCCCn1cnc2c(=S)nc[nH]c21`, which CC50 [1] is on record?
The CC50 was 400 µM.

For `CCn1cnc2c(=S)nc[nH]c21`, which CC50 [1] is on record?
Its CC50 is 600 µM.

What does the source list for `CC[C@H](C)[C@H](N)c1cn([C@@H](Cc2ccc(O)cc2)C(=O)N2CCN(c3nc(NCCOCCOCCOCc4cn(CCOCCOCCn5cnc6c(=S)nc[nH]c65)nn4)nc(N4CCN(C(=O)[C@H](Cc5ccc(O)cc5)n5cc([C@@H](N)[C@@H](C)CC)nn5)CC4)n3)CC2)nn1`?
Activity (NIH3T3 [2]): Non-toxic; IC50 (NIH3T3 [3]; nih3t3): Active

Which IC50 (MCF7) does the source give for `Sc1ncnc2nc[nH]c12` [MERCAPTOPURINE ANHYDROUS] here?
Its IC50 is 2.79 µM.

And the CC50 [1]?
Its CC50 is 50 µM.

With `CC[C@H](C)[C@@H](C(=O)N1CCN(c2nc(NCCOCCOCCOCc3cn(CC#Cc4ccc(-c5c6ccc(=[N+]7CCCCC7)cc-6oc6cc(N7CCCCC7)ccc56)cc4)nn3)nc(N3CCN(C(=O)[C@H]([C@@H](C)CC)n4cc([C@@H](N)Cc5ccc(O)cc5)nn4)CC3)n2)CC1)n1cc([C@@H](N)Cc2ccc(O)cc2)nn1` as the compound, how does the Activity (NIH3T3 [4]) read?
The Activity was “Active”.

What about the IC50 (NIH3T3 [2]) of the same compound?
Its IC50 is 25.8 µM.

And the Activity (NIH3T3 [5])?
Its Activity is “Toxic”.

What about the Activity (NIH3T3 [6]) of the same compound?
The Activity was “Toxic”.

And the Activity (NIH3T3 [7])?
The Activity was “Active”.

What about the IC50 (NIH3T3 [3]; [8]) of the same compound?
Its IC50 is 25.8 µM.

With `C#CCOCCOCCOCCNc1nc(N2CCN(C(=O)[C@H](Cc3ccc(O)cc3)n3cc([C@@H](N)[C@@H](C)CC)nn3)CC2)nc(N2CCN(C(=O)[C@H](Cc3ccc(O)cc3)n3cc([C@@H](N)[C@@H](C)CC)nn3)CC2)n1` as the compound, how does the Activity (NIH3T3 [2]) read?
Its Activity is “Non-toxic”.

What about the IC50 (NIH3T3 [3]; nih3t3) of the same compound?
Its IC50 is “Not Active”.

Which IC50 (MCF7) does the source give for `CN(C)c1ccc2c(-c3ccccc3)c3ccc(N(C)C)cc3[o+]c2c1` [ROSAMINE] here?
The IC50 was 0.39 µM.

Which results are given for `CC[C@H](C)[C@H](N)c1cn([C@@H](Cc2ccc(O)cc2)C(=O)N2CCN(c3nc(NCCOCCOCCOCc4cn(CC#Cc5ccc(-c6c7ccc(=[N+]8CCCCC8)cc-7oc7cc(N8CCCCC8)ccc67)cc5)nn4)nc(N4CCN(C(=O)[C@H](Cc5ccc(O)cc5)n5cc([C@@H](N)[C@@H](C)CC)nn5)CC4)n3)CC2)nn1`?
Activity (NIH3T3 [4]): inactive; IC50 (4T1): 19.9 µM; IC50 (NIH3T3 [2]): 27.6 µM; Activity (NIH3T3 [5]): Toxic; Activity (NIH3T3 [6]): Toxic; Activity (NIH3T3 [7]): inactive; IC50 (NIH3T3 [3]; [8]): 15.8 µM

What does the source list for `S=c1nc[nH]c2c1ncn2CCOCCOCCn1cc(COCCOCCOCCNc2nc(N3CCOCC3)nc(N3CCOCC3)n2)nn1`?
Activity (NIH3T3 [2]): Non-toxic; IC50 (NIH3T3 [3]; nih3t3): Not Active
